Assay results taken from patent publication US20030203975A1, “Anti-cancer agents” (priority 1998, published 2003).
Where a name gives a salt, the structure may show the parent alone.

Tested on: MAC 15A adenocarcinoma of the colon
Assay: In vitro chemosensitivity against MAC 15A adenocarcinoma (MTT assay)
Format: cell-based
Conditions: 96 hours continuous exposure
Experimental: In Vitro Activity Against MAC 15A Adenocarcinoma.
MAC 15A cells were grown in RPMI 1640 medium supplemented with 10% foetal calf serum containing a 1% antibiotic mixture under standard tissue culture conditions and were maintained at 37° C. in a humidified atmosphere of 5% CO2 in air. Cells were harvested from a stock culture in exponential growth phase and plated in 96-well flat-bottomed plates to achieve a final density of 2×10^3 cells per well. After 2 hours incubation medium was replaced with either fresh medium containing 0.5% DMSO (control) or medium containing test compound dissolved in DMSO at a concentrations from 10 mM to 1 nM. Chemosensitivity was assessed using MTT assay by the method of Plumb et al Cancer Research 49 (1989) 4435-4440.
Following 96 hours continuous exposure to drug at 37° C. cells were incubated with fresh drug-free medium immediately prior to addition of MTT solution (5 mg/ml). Medium and MTT were removed after 4 hours and 150 μl of DMSO was added. For each plate the absorbance of the resulting solution was measured at the analytical wavelength 550 nm for formazan product, using a Labsystem Mutiskan. IC50 values were obtained from growth curves of drug concentration against % survival and are expressed in μm.

Going from N[C@@H](CCCNC(=O)OCc1ccccc1)C(=O)OCCCNc1cccc2c1C(=O)c1ccccc1C2=O [Example 71, 1-[3-(N-δ-benzyloxycarbonyl-L-ornithyloxy)propylaminol]anthracene-9,10-dione trifluoroacetate] to CC(C)(COC(=O)CN)Nc1cccc2c1C(=O)c1ccccc1C2=O [Example 97, 2-[(9,10-dioxoanthryl)amino]-2-methylpropyl 2-aminoacetate trifluoro-acetate], the IC50 rises from 2.4 µM to 15 µM (6.2-fold). The first is the more potent here.

First: C[C@H](N)C(=O)OCC(C)(C)Nc1cccc2c1C(=O)c1ccccc1C2=O [Example 99, 2-[(9,10-dioxoanthryl)amino]-2-methylpropyl (2S)-2-amino propanoate trifluoroacetate]
Second: C[C@H](N)C(=O)OCCc1ccc(Nc2cccc3c2C(=O)c2ccccc2C3=O)cc1 [Example 103]
The IC50 of the first is 7.4-fold higher: 35 µM for the first, 4.7 µM for the second. The second is the more potent here.

Compared with C[C@@H](N)C(=O)OCCc1ccc(Nc2cccc3c2C(=O)c2ccccc2C3=O)cc1 [Example 105], NCC(=O)OCCN1CCN(c2cccc3c2C(=O)c2ccccc2C3=O)CC1 [Example 107, 2-[4-(9,10-dioxoanthryl)piperazinyl]ethyl 2-aminoacetate bis-trifluoroacetate] is 7.1-fold higher in IC50: 3.4 µM for the first, 24 µM for the second. The first is the more potent here.

Going from C[C@H](N)C(=O)OC1CCN(c2cccc3c2C(=O)c2ccccc2C3=O)CC1 [Example 117, 1-(9,10-dioxoanthryl)-4-piperidyl-(2S)-2-aminopropanoate trifluoro-acetate] to C[C@H](N)C(=O)OC[C@@H]1CCCN1c1cccc2c1C(=O)c1ccccc1C2=O [Example 121, [(2S)-1-(9,10-dioxoanthryl)pyrrolidin-2-yl]methyl (2S)-2-amino-propanoate trifluoroacetate], the IC50 rises from 14 µM to 22 µM (1.6-fold).

Compared with NCC(=O)N1CCC[C@H]1C(=O)OC[C@H](Cc1ccccc1)Nc1ccc(O)c2c1C(=O)c1c(O)cccc1C2=O [Example 135, (2S)-2-[(4,8-dihydroxy-9,10-dioxoanthryl)amino]-3-phenylpropyl (2S) -1-(2-aminoacetyl)pyrrolidine-2-carboxylate trifluoroacetate], “(2S)-2-[(9,10-dioxoanthryl)amino]propyl (2S)-2-propanoate trifluoroacetate [Example 119]” is 2.2-fold higher in IC50: 2.5 µM for the first, 5.5 µM for the second. The first is the more potent here.

Same assay, conditions: Mus musculus, MAC15A, 96 h, 96 hours continuous exposure

First: CC(C)[C@H](N)C(=O)OCCCNc1ccc(O)c2c1C(=O)c1ccccc1C2=O [Example 51, 4-hydroxy-1-[3-(L-valyloxy)propylamino]anthracene-9,10-dione tri-fluoroacetate]
Second: C[C@H](N)C(=O)OCCOCCNc1cccc2c1C(=O)c1ccccc1C2=O [Example 109, 1-[2-(2-{L-alanyloxy}ethoxy)ethylamino]anthracene-9,10-dione tri-fluoroacetate]
The IC50 of the first is 2.3-fold lower: 4.9 µM for the first, 11.5 µM for the second. The first is the more potent here.

Going from COc1ccc(C[C@H](N)C(=O)OCCCNc2cccc3c2C(=O)c2ccccc2C3=O)cc1 [Example 79, 1-[3-(O-methyl-L-tyrosyloxy)propylamino]anthracene-9,10dione tri-fluoroacetate] to C[C@@H](N)C(=O)OCCOCCNc1cccc2c1C(=O)c1ccccc1C2=O [Example 111, 1-[2-(2-{D-alanyloxy}ethoxy)ethylamino]anthracene-9,10-dione tri-fluoroacetate], the IC50 rises from 3.5 µM to 24 µM (6.9-fold).

Same assay, conditions: Mus musculus, MAC15A, 96 hours continuous exposure

Compared with C[C@H](N)C(=O)OCCNc1cccc2c1C(=O)c1ccccc1C2=O [Example 23, 1-[2-(L-alanyloxy)ethylamino]anthracene-9,10-dione trifluoroacetate], CC(C)[C@H](N)C(=O)OCCNc1cccc2c1C(=O)c1ccccc1C2=O [Example 25, 1-[2-(L-valyloxy)ethylamino]anthracene-9,10-dione trifluoroacetate] is 4-fold higher in IC50: 7.5 µM for the first, 30 µM for the second. The first is the more potent here.

Going from CC(C)[C@@H](N)C(=O)OCCNc1cccc2c1C(=O)c1ccccc1C2=O [Example 27, 1-[2-(D-valyloxy)ethylamino]anthracene-9,10-dione trifluoroacetate] to C[C@H](N)C(=O)OCCCCCNc1cccc2c1C(=O)c1ccccc1C2=O [Example 93, 1-[5-(L-alanyloxy)pentylamino]anthracene-9,10-dione trifluoroacetate], the IC50 falls from 14 µM to 3.5 µM (4-fold). The second is the more potent here.

Compared with N[C@@H](Cc1ccccc1)C(=O)OCCCNc1cccc2c1C(=O)c1ccccc1C2=O [Example 39, 1-[3-(L-phenylalanyloxy)propylamino]anthracene-9,10-dione trifluoro-acetate], N[C@@H](Cc1ccccc1)C(=O)OCCOCCNc1cccc2c1C(=O)c1ccccc1C2=O [Example 113, 1-[2-(2-{L-phenylalanyloxy}ethoxy)ethylamino]anthracene-9,10-dione trifluoroacetate] is 2.3-fold higher in IC50: 3 µM for the first, 7 µM for the second. The first is the more potent here.

N[C@H](C(=O)OCCCNc1cccc2c1C(=O)c1ccccc1C2=O)c1ccccc1 [Example 73, 1-[3-(L-phenylglycyloxy)propylamino]anthracene-9,10dione trifluoro-acetate] and N[C@@H](C(=O)OCCCNc1cccc2c1C(=O)c1ccccc1C2=O)c1ccccc1 [Example 75, 1-[3-(D-phenylglycyloxy)propylamino]anthracene-9, 10dione trifluoro-acetate] are within 1.5-fold of each other in IC50: 5 µM for the first, 4.2 µM for the second.

Compared with N[C@@H](Cc1c[nH]c2ccccc12)C(=O)OCCCCCONc1cccc2c1C(=O)c1ccccc1C2=O [Example 77, 1-[5-(L-tryptophyloxy)pentoxyamino]anthracene-9,10-dione trifluoro-acetate], N[C@H](Cc1ccccc1)C(=O)OCCOCCNc1cccc2c1C(=O)c1ccccc1C2=O [Example 115, 1-{2-(2-[D-phenylalanyloxy]ethoxy)ethylamino}anthracene-9,10-dione trifluoroacetate] is 2.2-fold higher in IC50: 5.5 µM for the first, 12 µM for the second.

First: NCC(=O)OCCCCNc1cccc2c1C(=O)c1ccccc1C2=O [Example 81, 1-[4-(glycyloxy)butylamino]anthracene-9,10-dione trifluoroacetate]
Second: CCCC(=O)OCCCCNc1cccc2c1C(=O)c1ccccc1C2=O [Example 89, 1-[4-(butanoyloxy)butylamino]anthracene-9,10-dione trifluoroacetate]
The IC50 of the first is 2.1-fold higher: 9.4 µM for the first, 4.5 µM for the second. The second is the more potent here.

CN[C@@H](C)C(=O)OCCCCNc1cccc2c1C(=O)c1ccccc1C2=O [Example 85, 1-[4-(methylalanyloxy)butylamino]anthracene-9,10-dione trifluoro-acetate] and C[C@@H](N)C(=O)OCCCCCNc1cccc2c1C(=O)c1ccccc1C2=O [Example 95, 1-[5-(D-alanyloxy)pentylamino]anthracene-9,10-dione trifluoroacetate] are within 1.5-fold of each other in IC50: 3.2 µM for the first, 3.1 µM for the second.

In the case of NCC(=O)NCC(=O)OCCCNc1cccc2c1C(=O)c1ccccc1C2=O [Example 129, 1-[3-(glycylglycyloxy)propylamino]anthracene-9,10-dione trifluoro-acetate], the IC50 is reported as 4 µM.

Tested on: not given
Assay: not given
Conditions: not given

Going from CC(C)(C)OC(=O)NCC(=O)OCCCNc1ccc(O)c2c1C(=O)c1ccccc1C2=O to CC(C)(C)OC(=O)NCC(=O)OCCCNc1ccc(O)c2c1C(=O)c1c(O)cccc1C2=O, the melting point rises from 124 °C to 152 °C.

Compared with CC(C)C[C@H](NC(=O)OC(C)(C)C)C(=O)NCC(=O)OCCCNc1cccc2c1C(=O)c1ccccc1C2=O, CC(C)(C)OC(=O)NCC(=O)OCCCCNc1cccc2c1C(=O)c1ccccc1C2=O [Example 80, 1-[4-(N-tertiarybutoxycarbonylglycyloxy)butylamino]anthracene-9,10-dione] is lower in melting point: 86 °C for the first, 70 °C for the second.

Compared with C[C@H](NC(=O)OC(C)(C)C)C(=O)OCCCNc1cccc2c1C(=O)c1ccccc1C2=O, C[C@@H](NC(=O)OC(C)(C)C)C(=O)OCCCNc1cccc2c1C(=O)c1ccccc1C2=O is lower in melting point: 60 °C for the first, 58 °C for the second.

First: CC(C)(C)OC(=O)N[C@H](Cc1ccccc1)C(=O)OCCCNc1cccc2c1C(=O)c1ccccc1C2=O
Second: CC[C@H](NC(=O)OC(C)(C)C)C(=O)OCCCCNc1cccc2c1C(=O)c1ccccc1C2=O
The melting point of the first is higher: 168 °C for the first, 58 °C for the second.

First: CC(C)(C)OC(=O)N1CCC[C@H]1C(=O)OCCCNc1cccc2c1C(=O)c1ccccc1C2=O
Second: CC(C)(C)OC(=O)N1CCC[C@@H]1C(=O)OCCCNc1cccc2c1C(=O)c1ccccc1C2=O
The melting point of the first is higher: 121 °C for the first, 120 °C for the second.

First: C[C@@H](C(=O)OCCCCNc1cccc2c1C(=O)c1ccccc1C2=O)N(C)C(=O)OC(C)(C)C
Second: C[C@H](NC(=O)OC(C)(C)C)C(=O)OCCCCNc1cccc2c1C(=O)c1ccccc1C2=O [Example 42, 1-[4-(N-tertiarybutoxycarbonyl-L-alanyloxy)butylamino] anthracene-9,10-dione]
The melting point of the first is lower: 62 °C for the first, 102 °C for the second.

First: NCC(=O)OCCCCNc1cccc2c1C(=O)c1ccccc1C2=O (as salt: trifluoroacetate) [Example 81, 1-[4-(glycyloxy)butylamino]anthracene-9,10-dione trifluoroacetate]
Second: C[C@@H](NC(=O)OC(C)(C)C)C(=O)OCCCCNc1cccc2c1C(=O)c1ccccc1C2=O [Example 44, 1-[4-(N-tertiarybutoxycarbonyl-D-alanyloxy)butylamino] anthracene-9,10-dione]
The melting point of the first is higher: 154 °C for the first, 100 °C for the second.

With CC(C)(C)OC(=O)NCC(=O)OCCNc1cccc2c1C(=O)c1ccccc1C2=O [Example 58, 1-[2-(N-tertiarybutoxycarbonylglycyloxy)ethylamino]anthracene-9,10-dione] the melting point was 122 °C.
